Measured values as given in ChEMBL document CHEMBL1128071, “Rational design, synthesis, and X-ray structure of renin inhibitors with extended P1 sidechains” (Bioorg Med Chem Lett, 1995).
pIC50: −log10 of the molar value.

Biological target: T1, Renin (Homo sapiens, UniProt P00797)
T1 sequence (P00797 whole entry): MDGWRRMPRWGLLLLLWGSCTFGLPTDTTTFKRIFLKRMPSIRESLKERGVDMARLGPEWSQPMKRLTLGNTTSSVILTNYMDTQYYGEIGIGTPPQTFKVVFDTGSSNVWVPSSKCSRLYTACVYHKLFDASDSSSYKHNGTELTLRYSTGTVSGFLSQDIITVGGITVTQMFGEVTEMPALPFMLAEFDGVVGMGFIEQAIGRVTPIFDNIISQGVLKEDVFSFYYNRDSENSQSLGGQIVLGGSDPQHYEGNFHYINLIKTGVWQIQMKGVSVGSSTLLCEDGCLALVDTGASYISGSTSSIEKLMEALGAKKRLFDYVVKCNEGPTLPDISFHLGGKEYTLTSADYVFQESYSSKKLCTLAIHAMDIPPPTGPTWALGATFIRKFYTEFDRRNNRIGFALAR
Experiment: Inhibition against recombinant human renin (rHR)

Structure (SMILES): CSC[C@H](NC(=O)CNC(=O)N1CCC(=O)CC1)C(=O)N[C@@H](Cc1cccc(-c2ccccc2)c1)[C@@H](O)[C@@H](O)CC(C)C
- pIC50: 6.96

Structure (SMILES): CSC[C@H](NC(C)=O)C(=O)N[C@@H](Cc1cccc(-c2ccccc2)c1)[C@@H](O)[C@@H](O)CC(C)C
- pIC50: 5.80

Structure (SMILES): CSC[C@H](NC(=O)CNC(=O)N1CCC(=O)CC1)C(=O)N[C@@H](Cc1ccc(-c2ccccc2)cc1)[C@@H](O)[C@@H](O)CC(C)C
- pIC50: 6.89

Structure (SMILES): CSC[C@H](NC(C)=O)C(=O)N[C@@H](CC1CCCCC1)[C@@H](O)[C@@H](O)CC(C)C
- pIC50: 5.29

Structure (SMILES): CSC[C@H](NC(=O)CNC(=O)N1CCC(=O)CC1)C(=O)N[C@@H](Cc1ccc(Oc2ccccc2)cc1)[C@@H](O)[C@@H](O)CC(C)C
- pIC50: 7.18

Structure (SMILES): CSC[C@H](NC(=O)CNC(=O)N1CCC(=O)CC1)C(=O)N[C@@H](CC1CCCCC1)[C@@H](O)[C@@H](O)CC(C)C
- pIC50: 5.92

Structure (SMILES): CSC[C@H](NC(C)=O)C(=O)N[C@@H](Cc1ccc(-c2ccccc2)cc1)[C@@H](O)[C@@H](O)CC(C)C
- pIC50: 5.96

Structure (SMILES): CSC[C@H](NC(=O)[C@H](Cc1ccccc1)NC(=O)N1CCC(=O)CC1)C(=O)N[C@@H](CC1CCCCC1)[C@@H](O)[C@@H](O)CC(C)C
- pIC50: 9.52

Structure (SMILES): CSC[C@H](NC(=O)CNC(=O)N1CCC(=O)CC1)C(=O)N[C@@H](Cc1ccccc1)[C@@H](O)[C@@H](O)CC(C)C
- pIC50: 4.80
